Earlier results on one compound are cited in patent US20110070315A1 (priority 2009, published 2011).

Structures are written as SMILES.

The data set deals with hair loss.

In the case of `Cl.NCCCC[C@H](N)C(=O)O` [L—Lysine HCl, L-Lysine HCl], the decreases hair loss entry was “one half”.
